From PubChem BioAssay (NCI)
≈ marks a conversion by molar mass, not a printed value.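 All cell lines were grown in 96-well plates and treated with compound for 48 hours. At the GI50, growth is halved. At the TGI there is no net growth.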

Key:
Experiment in all cases: NCI-60 cell line screen, 48 h
A498 renal = tested on: A498 renal
NCI-H460 lung = tested on: NCI-H460 lung
SK-MEL-28 melanoma = tested on: SK-MEL-28 melanoma
SW-620 colon = tested on: SW-620 colon
UO-31 renal = tested on: UO-31 renal
CAKI-1 renal = tested on: CAKI-1 renal
SF-539 CNS = tested on: SF-539 CNS
OVCAR-3 ovarian = tested on: OVCAR-3 ovarian
HCT-15 colon = tested on: HCT-15 colon
SNB-19 CNS = tested on: SNB-19 CNS
LOX IMVI melanoma = tested on: LOX IMVI melanoma
COLO 205 colon = tested on: COLO 205 colon
SN12C renal = tested on: SN12C renal
OVCAR-8 ovarian = tested on: OVCAR-8 ovarian

Compound	TGI (A498 renal)	TGI (NCI-H460 lung)	TGI (SK-MEL-28 melanoma)	TGI (SW-620 colon)	TGI (UO-31 renal)	TGI (CAKI-1 renal)	TGI (SF-539 CNS)	TGI (OVCAR-3 ovarian)	TGI (HCT-15 colon)	TGI (SNB-19 CNS)	TGI (LOX IMVI melanoma)	TGI (COLO 205 colon)	TGI (SN12C renal)	TGI (OVCAR-8 ovarian)	GI50 (SK-MEL-28 melanoma)	GI50 (UO-31 renal)	GI50 (OVCAR-3 ovarian)	GI50 (HCT-15 colon)	GI50 (SNB-19 CNS)
Cc1cc(O)c2c(c1)C(=O)c1c(c(O)cc(O)c1-c1c(O)cc(O)c3c1C(=O)c1cc(C)cc(O)c1C3=O)C2=O	40.4 µM	55.3 µM	70.8 µM	124 µM	15.8 µM	51.4 µM	36.6 µM	21.6 µM	38 µM	12.4 µM	50.2 µM	> 71.7 µM	41.2 µM	47 µM	–	–	–	–	–
CC1(C)OCC(CO)(CO)CO1	> 100 µM	> 100 µM	> 100 µM	> 100 µM	> 100 µM	–	–	> 100 µM	> 100 µM	> 100 µM	> 100 µM	> 100 µM	> 100 µM	> 100 µM	–	–	–	–	–
Cc1nc2nc(C)n(CCN3CCOCC3)c(=O)c2c(-c2cccc([N+](=O)[O-])c2)c1C(=O)CCCCCCCCCCN1CCC(c2ccccc2)(c2ccccc2)CC1	–	–	4.34 µg/mL	–	3.52 µg/mL	–	–	4.19 µg/mL	3.17 µg/mL	4.3 µg/mL	–	–	–	–	2.26 µg/mL (≈ 2.78 µM)	1.71 µg/mL (≈ 2.1 µM)	2.21 µg/mL (≈ 2.72 µM)	1.32 µg/mL (≈ 1.62 µM)	2.28 µg/mL (≈ 2.8 µM)
ICC1CCCO1 (configuration not stated)	> 100 µM	> 100 µM	> 100 µM	> 100 µM	–	> 100 µM	> 100 µM	–	> 100 µM	> 100 µM	> 100 µM	> 100 µM	> 100 µM	> 100 µM	–	–	–	–	–
CCOP(=O)(C/C=C/Cn1ncc(=O)[nH]c1=O)OCC	> 100 µM	> 100 µM	> 100 µM	> 100 µM	> 100 µM	> 100 µM	> 100 µM	> 100 µM	> 100 µM	> 100 µM	> 100 µM	> 100 µM	> 100 µM	> 100 µM	–	–	–	–	–
O=C=C=P(c1ccccc1)(c1ccccc1)c1ccccc1	–	> 100 µM	> 100 µM	> 100 µM	> 100 µM	> 100 µM	> 100 µM	–	> 100 µM	> 100 µM	> 100 µM	75.7 µM	> 100 µM	> 100 µM	–	–	–	–	–
CC(C)c1oc(=O)cc2c1C(O)C1OC(=O)C3(C)C(O)C4OC4C2(C)C13 (configuration not stated)	1.41 µM	9.73 µM	12.7 µM	19 µM	15.5 µM	9.39 µM	4.19 µM	6.42 µM	41.6 µM	4.41 µM	5.77 µM	4.18 µM	7.05 µM	10.6 µM	–	–	–	–	–
C=C1CC(OC)(C(OC)C(=O)N[C@H]2OCO[C@H]3C2O[C@H](C[C@@H](COC)OC)C(C)(C)C3OC)O[C@H](C)[C@@H]1C (some centres not stated)	2.58 µM	5.96 µM	3.45 µM	15 µM	5.71 µM	3.6 µM	2.85 µM	2.96 µM	8.25 µM	3.22 µM	> 47 µM	4.72 µM	> 47 µM	6.89 µM	–	–	–	–	–
